Laboratory results from patent US20230293711A1, “DISRUPTION OF CD28-SIALOSIDE LIGAND COMPLEXES TO ENHANCE T CELL ACTIVATION” (THE SCRIPPS RESEARCH INSTITUTE, priority 2020, published 2023).

Tests used:
[1] = tested on: OT-II cells; test: APC-free expansion of OT-II cells with anti-CD3 and recombinant CD80 in the presence of soluble glycan; type: cell-based; settings: soluble glycan 500 μM; anti-CD3 and recombinant CD80-Fc
Procedure: FIG. 7. APC-free expansion of OT-II cells in the presence of soluble glycan (500 μM). (A) Experimental setup. T cells were activated using anti-CD3 (αCD3) and recombinant CD80 (rCD80). (B) OT-II cell proliferation histograms. (C) Quantification of data from (B).
Since recombinant CD80 binding to CD28 was the sole source of co-stimulation for T cells in this experiment, we conclude that sialic acid ligands of CD28 functionally suppress CD28 mediated co-stimulation.

[2] = target: T1, mouse PD-1 (mPD1) (Mus musculus, UniProt Q02242); test: Binding of expressed anti-PD-1 monoclonal antibodies and conjugate to mouse PD-1 (ELISA); settings: anti-hPD1 clones
T1 sequence (Q02242 25-288): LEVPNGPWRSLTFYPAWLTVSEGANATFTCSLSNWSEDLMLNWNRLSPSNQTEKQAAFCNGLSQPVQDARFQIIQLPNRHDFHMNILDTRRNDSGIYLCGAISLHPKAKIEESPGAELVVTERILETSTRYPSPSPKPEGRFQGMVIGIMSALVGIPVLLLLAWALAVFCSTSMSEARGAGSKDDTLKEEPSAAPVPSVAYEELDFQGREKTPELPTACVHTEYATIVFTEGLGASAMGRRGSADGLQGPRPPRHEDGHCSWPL
From the text: FIG. 11. Three expressed anti PD-1 monoclonal antibodies targeted respectively to either human PD-1 (hPD1) and mouse PD-1 (mPD1) bind with high specificity and affinity.
(§1) We investigated the possibility of using non-specific small-molecule linkers to install multiple reactive sites on three expressed αPD1 monoclonal antibodies. […] Through an inverse Electron Demand Diels Alder (iEDDA) reaction, two molecules conjugated respectively with tetrazine and TCO moieties can react rapidly and covalently under ambient conditions. Utilizing the methodology and reagents shown in the reaction scheme in FIG. 12A, we incubated αPD1 antibody clones with NHS-tetrazine 1, allowing non-selective labeling of solvent-exposed lysine residue side-chains (FIG. 12A). Simultaneously, we modified an expressed sialidase from Salmonella typhimurium (ST) containing a C-terminal cysteine though incubation with a 40-fold molar excess of TCO-maleimide 2, leading to near-complete selective modification of the free thiol group (FIG. 12A). To optimize conjugation yield, leading to maximum utilization of antibody starting material while also producing defined products with small numbers of ST per antibody, we titrated the molar ratio of NHS-tetrazine used to load the antibody with reactive groups in step one of the conjugation reaction (FIG. 12B). […]

[3] = Sialidase activity of purified αPD1-S against MUNANA; type: biochemical; settings: 1 activity unit=1 μmol min-1; purified single- and double-modified αPD1-S
Procedure: as §1

[4] = tested on: OT-II cells; test: Adoptive transfer of ex vivo desialylated CTV-stained OT-II cells into OVA experienced host mice; type: in vivo; settings: cells treated ex vivo 45 min at 37° C.; OVA sensitized mice; vs normally sialylated control
Procedure: FIG. 8. Desialylated T cells are more readily activated in vivo. (A) WT mice were injected with OVA on day 1. On day 2, OT-II cells were treated with sialidase or PBS ex vivo for 45 min. at 37° C. and subsequently stained with CTV. These cells were then adoptively transferred into OVA experienced host mice (or naïve mice as a control). On day 5, spleens from host mice were analyzed for adoptively transferred OT-II cells and CTV dilution was evaluated. […] (C) Quantification of data from (B). […] Normalized division index corresponds to T cell division index for sialidase-treated cultures divided by the division index for the corresponding PBS treated control.
To investigate the translatability of these findings to an in vivo system, we adoptively transferred CTV-stained OT-II cells that were desialylated ex vivo into a WT host mouse. We observed that desialylated OT-II cells expanded more efficiently in vivo as compared to a normally sialylated control (FIG. 8).

[5] = tested on: OT-I cells (CD8^+ T cells); test: OT-I proliferation (CTV dilution) in co-culture with OVA-loaded DCs with or without sialidase
[6] = tested on: T cells (CD4^+ and CD8^+) from murine spleen (expressing CD28); test: Binding of recombinant CD80-Fc to sialidase-treated T cells (flow cytometry); type: cell-based
[7] = tested on: DCs (expressing CD80); test: Binding of recombinant CD28-Fc to sialidase-treated DCs (flow cytometry); type: cell-based, mouse
[8] = tested on: OT-II cells (CD4^+ T cells); test: OT-II proliferation (CTV dilution) in co-culture with OVA-loaded DCs with or without sialidase
[9] = tested on: Polyclonal CD8^+ T cells exhausted via chronic LCMV infection; type: cell-based, mice
[10] = tested on: exhausted P14 cells; type: cell-based, mouse
[11] = target: human CD28 (Homo sapiens, UniProt P10747); test: Steady state SPR of soluble glycan binding to surface immobilized CD28
Chain of human CD28 (P10747 19-220): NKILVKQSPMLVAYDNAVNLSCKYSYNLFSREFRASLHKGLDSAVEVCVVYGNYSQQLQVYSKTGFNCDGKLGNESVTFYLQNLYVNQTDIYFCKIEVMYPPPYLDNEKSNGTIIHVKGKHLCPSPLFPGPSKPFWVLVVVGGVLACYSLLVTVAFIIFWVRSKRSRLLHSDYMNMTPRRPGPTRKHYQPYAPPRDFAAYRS
From the text: FIG. 5. Biophysical characterization of a CD28-sialoside interaction. Steady state SPR data for α2,3-Sialyl-triLacNAc and triLacNAc binding to surface immobilized human CD28.
As an orthogonal test for sialoside binding and to assess the affinity of a sialoside ligand, we tested the ability of surface-immobilized CD28 to bind to a soluble sialylated glycan using SPR.

[12] = target: chimeric PD-1 fused to green fluorescent protein, expressed on Jurkat T cells; test: cell-based or functional assay
[13] = target: T2, human PD-1 (human, UniProt Q15116 25-167, limits assumed); test: ELISA (FIG. 11)
T2 construct: also called hPD1
T2 sequence (Q15116 25-167 limits assumed): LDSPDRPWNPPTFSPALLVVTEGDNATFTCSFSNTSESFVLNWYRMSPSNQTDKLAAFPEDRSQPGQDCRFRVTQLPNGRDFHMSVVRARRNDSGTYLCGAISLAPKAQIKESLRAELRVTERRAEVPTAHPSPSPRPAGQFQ

[14] = target: T3, CD80 on murine dendritic cells (mouse, UniProt Q00609 38-306); test: flow cytometry on DCs with or without sialidase
T3 construct: whole, on cells; DCs (expressing CD80), untreated or treated with V. cholerae sialidase; also called B7-1
T3 sequence: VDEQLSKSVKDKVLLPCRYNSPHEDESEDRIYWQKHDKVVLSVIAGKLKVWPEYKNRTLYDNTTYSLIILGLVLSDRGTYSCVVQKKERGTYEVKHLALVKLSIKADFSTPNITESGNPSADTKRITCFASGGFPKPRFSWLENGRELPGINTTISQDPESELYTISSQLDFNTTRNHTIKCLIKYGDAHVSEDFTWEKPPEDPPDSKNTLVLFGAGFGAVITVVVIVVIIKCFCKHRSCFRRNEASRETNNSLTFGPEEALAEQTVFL

[15] = target: mouse PD-1 (mouse) (UniProt Q02242); test: ELISA (FIG. 11)
[16] = OVA-loaded bone marrow derived DCs, 3 days, vs PBS
[17] = bulk OVA-loaded splenocytes, DCs differentiated using Flt3L

Molecule: NeuAcα2-3Galβ1-4(Fucα1-3)GlcNAc [sialylated-Lewis X]
- T cell proliferation [1]: significant reduction

Molecule: Pembrolizumab [409A11]
- affinity for mPD1 [2]: no affinity
- sialidase activity against MUNANA [3]: 26 U mL-1

Molecule: sialidase: free sialidase; from V. cholerae in FIG. 2 and 6, source not stated for the other experiments
- proliferation of adoptively transferred OT-II cells in vivo [4]: enhanced proliferation
- enhancement of CD8^+ T cell proliferation [5, 16]: 2-3 fold
- OT-I cell activation with alternative APC sources [5, 17]: enhancement
- binding of recombinant CD80-Fc to desialylated T cells compared to untreated controls [6]: significant enhancement
- binding of recombinant CD28-Fc to desialylated DCs compared to untreated controls [7]: significant enhancement
- enhancement of CD4^+ T cell proliferation [8, 16]: 2-3 fold
- OT-II cell activation with alternative APC sources [8, 17]: enhancement
- T cell activation (percentage of cells expressing IFN-γ and granzyme B) over peptide alone [9]: enhanced
- expression of LAMP-1 over peptide alone [9]: enhanced
- cytokine production (IFN-γ/TNF-α) [10]: enhanced

Molecule: α2,3-Sialyl-triLacNAc [soluble sialylated glycan]
- Kd [11]: 112 µM

Molecule: αhPD1-S (409A11), conjugate of anti-human PD-1 clone 409A11 and Salmonella typhimurium sialidase (from UniProt P29768 2-382)
- desialylation of Jurkat-PD1-GFP against Jurkat T cells (lectin staining SNA, PNA, MAA-II, flow cytometry) [12]: > 100 fold
- fold decrease in level of αPD1-S needed for similar desialylation of Jurkat-PD1-GFP against native Jurkat cells [12]: 100 to 1000 fold

B1: anti-human PD-1 monoclonal antibody clone 1H3 (antibody, V domains shown)
VH: EVQLVESGGGLVKPGGSLKLSCAASGFTFSDYGMHWVRQAPEKGLEWVAYISSGSYTIYYTDTVKGRFTISRDNAKNTLFLQMTSLRSEDTAMYYCARRGYGSFYEYYFDYWGQGTTLTVSS
VL: QIVLTQSPALMSASPGEKVTMTCSASSSVSYMYWYQQKPRSSPKPWIYLTSNLASGVPARFSGSGSGTSYSLTISSMEAEDAATYYCQQWSSNPFTFGSGTKLEIK
- EC50 [13]: 0.16 mg/L

B2: recombinant chimeric mouse CD28 fused to human Fc (Fc fusion, UniProt P31041 20-150, looked up)
chain: NKILVKQSPLLVVDSNEVSLSCRYSYNLLAKEFRASLYKGVNSDVEVCVGNGNFTYQPQFRSNAEFNCDGDFDNETVTFRLWNLHVNHTDIYFCKIEFMYPPPYLDNERSNGTIIHIKEKHLCHTQSSPKL
notes: Commercial Fc chimera; also called CD28-Fc; not shown: human Fc
- binding result [14]: binds

B3: anti-mouse PD-1 monoclonal antibody clone J43 (antibody, from another filing, V domains shown)
VH: EVRLLESGGGLVKPEGSLKLSCVASGFTFSDYFMSWVRQAPGKGLEWVAHIYTKSYNYATYYSGSVKGRFTISRDDSRSMVYLQMNNLRTEDTATYYCTRDGSGYPSLDFWGQGTQVTVSS
VL: YELTQPPSASVNVGETVKITCSGDQLPKYFADWFHQRSDQTILQVIYDDNKRPSGIPERISGSSSGTTATLTIRDVRAEDEGDYYCFSGYVDSDSKLYVFGSGTQLTVLG
- EC50 [15]: 0.39 mg/L
